Consider 24 molecules from patent publication US11603349B2, “Anti-fibrotic compounds” (Certa Therapeutics Pty Ltd, priority 2017, dated 2023).

Structures are written as SMILES.

The test system of data set [1] is TGF-β induced [14C]-proline incorporation in rat mesangial cells. Description: [14C]-proline incorporation assay (collagen biosynthesis). The data set is classed as cell-based. To be noted: Rattus norvegicus, Mesangial cell, 44 h.
Data set [2] is described as follows: MTS tetrazolium reduction cell viability assay. To be noted: rat, rat mesangial cells (1097/IRMC cells), TGF-β1 stimulated, CC50 (μM), vs 1% DMSO vehicle. In general terms: Tetrazolium assays rely on reduction of a dye to a coloured formazan, in cell work by metabolically active cells.
Setting [3] is: inhibition of TGF-β1 (1 ng/ml) induced [14C]-proline incorporation, IRMC cells.

As usually defined, the IC50 is the concentration that inhibits the measured activity by half. The term CC50 denotes the concentration at which the toxic effect on the cells reaches its halfway point. A high value points to better tolerance by the cells. In data set [1] (setting [3]), `C#CCOc1ccc(/C=C/C(=O)Nc2ccccc2F)cc1OC` [Example 1, (E)-N-(2-fluorophenyl)-3-(3-methoxy-4-(prop-2-yn-1-yloxy)phenyl)acrylamide] yielded an IC50 of 10.9 µM. Further, the half-maximal cytotoxic concentration (CC50) at 48 h in data set [2] is more than 300 µM.
The corresponding values for `C#CCOc1ccc(/C=C/C(=O)Nc2ccccc2-c2n[nH]c(C)n2)cc1OC` [Example 2, (E)-3-(3-methoxy-4-(prop-2-yn-1-yloxy)phenyl)-N-(2-(5-methyl-1H-1,2,4-triazol-3-yl)phenyl)acrylamide] are 10.4 µM and more than 300 µM.
As to `C#CCOc1ccc(/C=C/C(=O)Nc2ccccc2Cl)cc1OC` [Example 3, (E)-N-(2-chlorophenyl)-3-(3-methoxy-4-(prop-2-yn-1-yloxy)phenyl)acrylamide], the IC50 in data set [1] (setting [3]) is 3.94 µM. In data set [2], this molecule came in with a CC50 at 48 h of 71.1 µM.
In data set [1] (setting [3]), `C#CCOc1ccc(/C=C/C(=O)Nc2ccccc2Br)cc1OC` [Example 4, (E)-N-(2-bromophenyl)-3-(3-methoxy-4-(prop-2-yn-1-yloxy)phenyl)acrylamide] registered an IC50 of 4.32 µM. In addition, in data set [2], the CC50 at 48 h is 323 µM.
`C#CCOc1ccc(/C=C/C(=O)Nc2ccccc2C)cc1OC` [Example 5, (E)-3-(3-methoxy-4-(prop-2-yn-1-yloxy)phenyl)-N-(o-tolyl)acrylamide] registered an IC50 in data set [1] (setting [3]) of 10.6 µM. For the same molecule, the cytotoxic concentration (CC50) at 48 h in data set [2] came out at 369 µM.
For the molecule `C#CCOc1ccc(/C=C/C(=O)Nc2ccccc2C#N)cc1OC` [Example 6, (E)-N-(2-cyanophenyl)-3-(3-methoxy-4-(prop-2-yn-1-yloxy)phenyl)acrylamide], the IC50 in data set [1] (setting [3]) turned out to be 11.4 µM. This molecule also yielded a CC50 at 48 h in data set [2] of more than 300 µM.
In data set [1] (setting [3]), `C#CCOc1ccc(/C=C/C(=O)Nc2ccc(Cl)c(Cl)c2)cc1OC` [Example 7, (E)-N-(3,4-dichlorophenyl)-3-(3-methoxy-4-(prop-2-yn-1-yloxy)phenyl)acrylamide] registered an IC50 of 1.97 µM. Besides, the half-maximal cytotoxic concentration (CC50) at 48 h in data set [2] amounted to 62.5 µM.
As for `C#CCOc1ccc(/C=C/C(=O)Nc2ccccc2)cc1OC` [Example 8, (E)-3-(3-methoxy-4-(prop-2-yn-1-yloxy)phenyl)-N-phenylacrylamide], the IC50 in data set [1] is 5.33 µM. Besides, half-maximal cytotoxicity in data set [2] (CC50 at 48 h) was put at 109 µM.
In the case of `C#CCOc1ccc(/C=C/C(=O)N2CCC(C(=O)OC)c3ccccc32)cc1OC` (stereo not drawn) [Example 9, methyl (E)-1-(3-(3-methoxy-4-(prop-2-yn-1-yloxy)phenyl)acryloyl)-1,2,3,4-tetrahydroquinoline-4-carboxylate], in data set [1] (setting [3]), the half-maximal inhibitory concentration (IC50) is 1.94 µM. The midpoint of cytotoxicity in data set [2], the CC50 at 48 h, lay at 25.5 µM.
`C#CCOc1ccc(/C=C/C(=O)N2CCCc3ccccc32)cc1OC` [Example 10, (E)-1-(3,4-dihydroquinolin-1(2H)-yl)-3-(3-methoxy-4-(prop-2-yn-1-yloxy)phenyl)prop-2-en-1-one]: in data set [1] (setting [3]), the half-maximal inhibitory concentration (IC50) turned out to be 6.04 µM. It took 66.4 µM to reach half-maximal cytotoxicity in data set [2] (CC50 at 48 h).
Take `C#CCOc1ccc(/C=C/C(=O)N2CCNc3ccccc32)cc1OC` [Example 11, (E)-1-(3,4-dihydroquinoxalin-1(2H)-yl)-3-(3-methoxy-4-(prop-2-yn-1-yloxy)phenyl)prop-2-en-1-one]: the IC50 in data set [1] (setting [3]) turned out to be 7.07 µM. In data set [2], this molecule came in with a CC50 at 48 h of 104 µM.
`C#CCOc1ccc(/C=C/C(=O)N2CCOc3ccccc32)cc1OC` [Example 12, (E)-1-(2,3-dihydro-4H-benzo[b][1,4]oxazin-4-yl)-3-(3-methoxy-4-(prop-2-yn-1-yloxy)phenyl)prop-2-en-1-one] yielded an IC50 in data set [1] (setting [3]) of 10.2 µM. The same molecule gave a CC50 at 48 h in data set [2] of 335 µM.
The matching figures for `C#CCOc1ccc(/C=C/C(=O)N2CCC(O)c3ccccc32)cc1OC` (stereo not drawn) [Example 14, (E)-1-(4-hydroxy-3,4-dihydroquinolin-1(2H)-yl)-3-(3-methoxy-4-(prop-2-yn-1-yloxy)phenyl)prop-2-en-1-one]: 10.4 µM and 48.9 µM.
For `C#CCOc1ccc(/C=C/C(=O)n2nc(O)c3ccccc32)cc1OC` [Example 15, (E)-1-(3-hydroxy-1H-indazol-1-yl)-3-(3-methoxy-4-(prop-2-yn-1-yloxy)phenyl)prop-2-en-1-one], the 50% inhibitory concentration (IC50) in data set [1] (setting [3]) turned out to be 25.2 µM. Also, it took 304 µM to reach half-maximal cytotoxicity in data set [2] (CC50 at 48 h).
For the molecule `C#CCOc1ccc(/C=C/C(=O)Nc2ccccc2-c2nn[nH]n2)cc1OC` [Example 16, (E)-N-(2-(2H-tetrazol-5-yl)phenyl)-3-(3-methoxy-4-(prop-2-yn-1-yloxy)phenyl)acrylamide], half-maximal inhibition in data set [1] (setting [3]) (IC50) required 22.3 µM. The same molecule yielded a cytotoxic concentration (CC50) at 48 h in data set [2] of 107 µM.
Molecule `C#CCOc1ccc(/C=C/C(=O)Nc2ccccc2-c2ncon2)cc1OC` [Example 17, (E)-N-(2-(1,2,4-oxadiazol-3-yl)phenyl)-3-(3-methoxy-4-(prop-2-yn-1-yloxy)phenyl)acrylamide] showed a 50% inhibitory concentration (IC50) in data set [1] (setting [3]) of 31.6 µM. Also, the CC50 at 48 h in data set [2] is more than 300 µM.
Consider `C#CCOc1ccc(/C=C/C(=O)Nc2ccccc2-c2noc(C)n2)cc1OC` [Example 18, (E)-3-(3-methoxy-4-(prop-2-yn-1-yloxy)phenyl)-N-(2-(5-methyl-1,2,4-oxadiazol-3-yl)phenyl)-acrylamide], for which the IC50 in data set [1] (setting [3]) was 17.2 µM. For the same molecule, in data set [2], the cytotoxic concentration (CC50) at 48 h was 151 µM.
The corresponding values for `C#CCOc1ccc(/C=C/C(=O)Nc2ccccc2-c2noc(=O)[nH]2)cc1OC` [Example 19, (E)-3-(3-methoxy-4-(prop-2-yn-1-yloxy)phenyl)-N-(2-(5-oxo-4,5-dihydro-1,2,4-oxadiazol-3-yl)phenyl)acrylamide] are 19.7 µM and 122 µM.
With `C#CCOc1ccc(/C=C/C(=O)Nc2ccccc2-c2nnco2)cc1OC` [Example 21, (E)-N-(2-(1,3,4-oxadiazol-2-yl)phenyl)-3-(3-methoxy-4-(prop-2-yn-1-yloxy)phenyl)acrylamide], the 50% inhibitory concentration (IC50) in data set [1] (setting [3]) turned out to be 25 µM. Also, in data set [2], the cytotoxic concentration (CC50) at 48 h is more than 300 µM.
In data set [1], `C#CCOc1ccc(/C=C/C(=O)Nc2ccccc2-c2cnn(C)c2)cc1OC` [Example 22, (E)-3-(3-methoxy-4-(prop-2-yn-1-yloxy)phenyl)-N-(2-(1-methyl-1H-pyrazol-4-yl)phenyl)-acrylamide] had a concentration for half-maximal inhibition (IC50) of 16.4 µM. The molecule further gave a half-maximal cytotoxic concentration (CC50) at 48 h in data set [2] of 240 µM.
`C#CCOc1ccc(/C=C/C(=O)Nc2ccccc2-n2cnc(C)n2)cc1OC` [Example 23, (E)-3-(3-methoxy-4-(prop-2-yn-1-yloxy)phenyl)-N-(2-(3-methyl-1H-1,2,4-triazol-1-yl)phenyl)acryl-amide] showed an IC50 in data set [1] (setting [3]) of 26.3 µM. The molecule also gave a cytotoxic concentration (CC50) at 48 h in data set [2] of 104 µM.
Molecule `C#CCOc1ccc(/C=C/C(=O)Nc2ccccc2-c2cn[nH]c2)cc1OC` [Example 24, (E)-N-(2-(1H-pyrazol-4-yl)phenyl)-3-(3-methoxy-4-(prop-2-yn-1-yloxy)phenyl)acrylamide] displayed an IC50 in data set [1] (setting [3]) of 13 µM. The molecule also showed a cytotoxic concentration (CC50) at 48 h in data set [2] of 41.4 µM.
With `C#CCOc1ccc(/C=C/C(=O)Nc2ccccc2-c2c[nH]cn2)cc1OC` [Example 25, (E)-N-(2-(1H-imidazol-4-yl)phenyl)-3-(3-methoxy-4-(prop-2-yn-1-yloxy)phenyl)acrylamide], 45.5 µM corresponded to half-maximal inhibition in data set [1] (setting [3]) (IC50). In data set [2], this molecule yielded a half-maximal cytotoxic concentration (CC50) at 48 h of more than 300 µM.
In data set [1] (setting [3]), `C#CCOc1ccc(/C=C/C(=O)Nc2ccccc2-c2cn(C)cn2)cc1OC` [Example 26, (E)-3-(3-methoxy-4-(prop-2-yn-1-yloxy)phenyl)-N-(2-(1-methyl-1H-imidazol-4-yl)phenyl)acrylamide] displayed a concentration for half-maximal inhibition (IC50) of 13.5 µM. In data set [2], this molecule registered a CC50 at 48 h of 190 µM.
